# Results from patent publication US20170233414A1, “DERIVATIVES OF BODIPY” (OREGON HEALTH & SCIENCE UNIVERSITY, priority 2016, published 2017).
# Assay: Fluorescence properties and quantum yield measurements of the BAA library
# Type: physicochemical
# Design: FWHM (full-width-at half max): unit not given here
# Details: anhydrous DMSO
# Experimental: General Instruments. Synthesized sample purification was performed with an Agilent 1260 Infinity HPLC utilizing a C18 column (150mm×21.2 mm). MS (HRMS, ESI) spectra data was collected with an Agilent 6244 TOF LC/MS with diode array detector VL+ and C18 column (4.6 mm×50 mm). Absorbance and fluorescence data were measured on a SpectraMax M5 Microplate reader. NMR spectra, ^1H and ^13C, were recorded on a Bruker ARK400 spectrometer. BAA microscopy screening in cells for organelle specificity and signal-to-background ratio was completed with an Axio Zeiss Light Microscope and 63× oil immersion objective.
# Fluorescence Properties and Quantum Yield Measurements. Spectroscopic characterizations were performed in anhydrous DMSO in polystyrene 96 well plate. Analysis included the maximum absorbance wavelength, maximum fluorescence emission wavelength, full-width-at half max, and quantum yield. Quantum yields (φfl) were determined by comparing the area under the emission spectrum of the BAA compound to a reference fluorophore solution at three concentrations using equation 1, where Grad represents the gradient from the plots of integrated fluorescence intensity vs absorbance at three concentrations and q is the refractive index of the solvent. Fluorescein in 0.1 M NaOH (φfl=0.91)^3 was the reference for samples with a max absorbance up to 510 nm, where an excitation of 470 nm was used with the emission integrated between 490 to 800 nm. Rhodamine B in ethanol (φfl=0.70) was the reference for samples with a max absorbance between 511-595 nm, where an excitation of 525 nm was used with the emission integrated between 545 to 800 nm. Cresyl violet in methanol (φfl=0.54)^4 was the reference for samples with a max absorbance above 595 nm, where an excitation of 570 nm was used with the emission integrated between 590 to 800 nm.
row,SMILES,Stokes Shift
1,CC1=CC(C=Cc2cnn(-c3ccccc3C)c2C)=[N+]2C1=Cc1ccc(C(=Cc3cnn(-c4ccccc4C)c3C)CC(=O)O)n1[B-]2(F)F [BAA-57b],16 nm
2,COC(=O)c1ccc(-c2cccc(C=CC3=[N+]4C(=Cc5ccc(CCC(=O)O)n5[B-]4(F)F)C(C)=C3)c2)cc1 [BAA-58a],10 nm
3,CC1=CC(C=Cc2cccc(-c3ccc(S(C)(=O)=O)cc3)n2)=[N+]2C1=Cc1ccc(CCC(=O)O)n1[B-]2(F)F [BAA-59a],10 nm
4,CC1=CC(C=Cc2ccc(-c3cccs3)s2)=[N+]2C1=Cc1ccc(C(=Cc3ccc(-c4cccs4)s3)CC(=O)O)n1[B-]2(F)F [BAA-60b],16 nm
5,CC1=CC(C=Cc2cccc3cnccc23)=[N+]2C1=Cc1ccc(CCC(=O)O)n1[B-]2(F)F [BAA-62a],15 nm
6,CC1=CC(C=Cc2cc3ccc(C)cc3nc2Cl)=[N+]2C1=Cc1ccc(CCC(=O)O)n1[B-]2(F)F [BAA-63a],15 nm
7,CC1=CC(C=Cc2c[nH]nc2-c2ccc(Cl)cc2)=[N+]2C1=Cc1ccc(CCC(=O)O)n1[B-]2(F)F [BAA-64a],17 nm
8,CC1=CC(C=Cc2ccc(-c3ccccc3F)o2)=[N+]2C1=Cc1ccc(CCC(=O)O)n1[B-]2(F)F [BAA-65a],16 nm
9,CC1=CC(C=Cc2ccc(-c3ccc(Cl)s3)nc2)=[N+]2C1=Cc1ccc(CCC(=O)O)n1[B-]2(F)F [BAA-66a],11 nm
10,CCSc1ccc(-c2ccc(C=CC3=[N+]4C(=Cc5ccc(CCC(=O)O)n5[B-]4(F)F)C(C)=C3)cn2)cc1 [BAA-67a],11 nm
11,CC1=CC(C=Cc2ccc(-c3nccs3)cc2)=[N+]2C1=Cc1ccc(CCC(=O)O)n1[B-]2(F)F [BAA-68a],10 nm
12,CC1=CC(C=Cc2ccc(-c3cc(Cl)cc(Cl)c3)nc2)=[N+]2C1=Cc1ccc(CCC(=O)O)n1[B-]2(F)F [BAA-69a],12 nm
13,CC1=CC(C=Cc2ccc(-c3cccc(C(F)(F)F)c3)nc2)=[N+]2C1=Cc1ccc(CCC(=O)O)n1[B-]2(F)F [BAA-70a],8 nm
14,CC1=CC(C=Cc2ccc(-c3ccc(OC(F)(F)F)cc3)nc2)=[N+]2C1=Cc1ccc(CCC(=O)O)n1[B-]2(F)F [BAA-71a],9 nm
15,CC1=CC(C=Cc2ccc(-c3ccc(F)c(F)c3)nc2)=[N+]2C1=Cc1ccc(CCC(=O)O)n1[B-]2(F)F [BAA-72a],10 nm
16,CC1=CC(C=Cc2ccc(OCCBr)cc2)=[N+]2C1=Cc1ccc(CCC(=O)O)n1[B-]2(F)F [BAA-73a],14 nm

# Same assay, conditions: anhydrous DMSO, polystyrene 96 well plate
SMILES,λmax ABS,λmax EM
CC1=CC(C=Cc2cnn(-c3ccccc3C)c2C)=[N+]2C1=Cc1ccc(C(=Cc3cnn(-c4ccccc4C)c3C)CC(=O)O)n1[B-]2(F)F [BAA-57b],575 nm,591 nm
COC(=O)c1ccc(-c2cccc(C=CC3=[N+]4C(=Cc5ccc(CCC(=O)O)n5[B-]4(F)F)C(C)=C3)c2)cc1 [BAA-58a],572 nm,582 nm
CC1=CC(C=Cc2cccc(-c3ccc(S(C)(=O)=O)cc3)n2)=[N+]2C1=Cc1ccc(CCC(=O)O)n1[B-]2(F)F [BAA-59a],571 nm,581 nm
CC1=CC(C=Cc2ccc(-c3cccs3)s2)=[N+]2C1=Cc1ccc(C(=Cc3ccc(-c4cccs4)s3)CC(=O)O)n1[B-]2(F)F [BAA-60b],588 nm,604 nm
CC1=CC(C=Cc2cccc3cnccc23)=[N+]2C1=Cc1ccc(CCC(=O)O)n1[B-]2(F)F [BAA-62a],579 nm,594 nm
CC1=CC(C=Cc2cc3ccc(C)cc3nc2Cl)=[N+]2C1=Cc1ccc(CCC(=O)O)n1[B-]2(F)F [BAA-63a],592 nm,607 nm
CC1=CC(C=Cc2c[nH]nc2-c2ccc(Cl)cc2)=[N+]2C1=Cc1ccc(CCC(=O)O)n1[B-]2(F)F [BAA-64a],576 nm,593 nm
CC1=CC(C=Cc2ccc(-c3ccccc3F)o2)=[N+]2C1=Cc1ccc(CCC(=O)O)n1[B-]2(F)F [BAA-65a],606 nm,622 nm
CC1=CC(C=Cc2ccc(-c3ccc(Cl)s3)nc2)=[N+]2C1=Cc1ccc(CCC(=O)O)n1[B-]2(F)F [BAA-66a],587 nm,598 nm
CCSc1ccc(-c2ccc(C=CC3=[N+]4C(=Cc5ccc(CCC(=O)O)n5[B-]4(F)F)C(C)=C3)cn2)cc1 [BAA-67a],587 nm,598 nm
CC1=CC(C=Cc2ccc(-c3nccs3)cc2)=[N+]2C1=Cc1ccc(CCC(=O)O)n1[B-]2(F)F [BAA-68a],585 nm,595 nm
CC1=CC(C=Cc2ccc(-c3cc(Cl)cc(Cl)c3)nc2)=[N+]2C1=Cc1ccc(CCC(=O)O)n1[B-]2(F)F [BAA-69a],577 nm,589 nm
CC1=CC(C=Cc2ccc(-c3cccc(C(F)(F)F)c3)nc2)=[N+]2C1=Cc1ccc(CCC(=O)O)n1[B-]2(F)F [BAA-70a],580 nm,588 nm
CC1=CC(C=Cc2ccc(-c3ccc(OC(F)(F)F)cc3)nc2)=[N+]2C1=Cc1ccc(CCC(=O)O)n1[B-]2(F)F [BAA-71a],580 nm,589 nm
CC1=CC(C=Cc2ccc(-c3ccc(F)c(F)c3)nc2)=[N+]2C1=Cc1ccc(CCC(=O)O)n1[B-]2(F)F [BAA-72a],580 nm,590 nm
CC1=CC(C=Cc2ccc(OCCBr)cc2)=[N+]2C1=Cc1ccc(CCC(=O)O)n1[B-]2(F)F [BAA-73a],579 nm,593 nm

# Same assay, conditions: anhydrous DMSO; emission
row,SMILES,FWHM (full-width-at half max)
1,CC1=CC(C=Cc2cnn(-c3ccccc3C)c2C)=[N+]2C1=Cc1ccc(C(=Cc3cnn(-c4ccccc4C)c3C)CC(=O)O)n1[B-]2(F)F [BAA-57b],38
2,COC(=O)c1ccc(-c2cccc(C=CC3=[N+]4C(=Cc5ccc(CCC(=O)O)n5[B-]4(F)F)C(C)=C3)c2)cc1 [BAA-58a],30
3,CC1=CC(C=Cc2cccc(-c3ccc(S(C)(=O)=O)cc3)n2)=[N+]2C1=Cc1ccc(CCC(=O)O)n1[B-]2(F)F [BAA-59a],30
4,CC1=CC(C=Cc2ccc(-c3cccs3)s2)=[N+]2C1=Cc1ccc(C(=Cc3ccc(-c4cccs4)s3)CC(=O)O)n1[B-]2(F)F [BAA-60b],37
5,CC1=CC(C=Cc2cccc3cnccc23)=[N+]2C1=Cc1ccc(CCC(=O)O)n1[B-]2(F)F [BAA-62a],33
6,CC1=CC(C=Cc2cc3ccc(C)cc3nc2Cl)=[N+]2C1=Cc1ccc(CCC(=O)O)n1[B-]2(F)F [BAA-63a],39
7,CC1=CC(C=Cc2c[nH]nc2-c2ccc(Cl)cc2)=[N+]2C1=Cc1ccc(CCC(=O)O)n1[B-]2(F)F [BAA-64a],37
8,CC1=CC(C=Cc2ccc(-c3ccccc3F)o2)=[N+]2C1=Cc1ccc(CCC(=O)O)n1[B-]2(F)F [BAA-65a],54
9,CC1=CC(C=Cc2ccc(-c3ccc(Cl)s3)nc2)=[N+]2C1=Cc1ccc(CCC(=O)O)n1[B-]2(F)F [BAA-66a],34
10,CCSc1ccc(-c2ccc(C=CC3=[N+]4C(=Cc5ccc(CCC(=O)O)n5[B-]4(F)F)C(C)=C3)cn2)cc1 [BAA-67a],61
11,CC1=CC(C=Cc2ccc(-c3nccs3)cc2)=[N+]2C1=Cc1ccc(CCC(=O)O)n1[B-]2(F)F [BAA-68a],30
12,CC1=CC(C=Cc2ccc(-c3cc(Cl)cc(Cl)c3)nc2)=[N+]2C1=Cc1ccc(CCC(=O)O)n1[B-]2(F)F [BAA-69a],30
13,CC1=CC(C=Cc2ccc(-c3cccc(C(F)(F)F)c3)nc2)=[N+]2C1=Cc1ccc(CCC(=O)O)n1[B-]2(F)F [BAA-70a],33
14,CC1=CC(C=Cc2ccc(-c3ccc(OC(F)(F)F)cc3)nc2)=[N+]2C1=Cc1ccc(CCC(=O)O)n1[B-]2(F)F [BAA-71a],32
15,CC1=CC(C=Cc2ccc(-c3ccc(F)c(F)c3)nc2)=[N+]2C1=Cc1ccc(CCC(=O)O)n1[B-]2(F)F [BAA-72a],31
16,CC1=CC(C=Cc2ccc(OCCBr)cc2)=[N+]2C1=Cc1ccc(CCC(=O)O)n1[B-]2(F)F [BAA-73a],46

# Same assay, conditions: anhydrous DMSO; relative to reference fluorophore at three concentrations
row,SMILES,φfl (quantum yield)
1,CC1=CC(C=Cc2cnn(-c3ccccc3C)c2C)=[N+]2C1=Cc1ccc(C(=Cc3cnn(-c4ccccc4C)c3C)CC(=O)O)n1[B-]2(F)F [BAA-57b],0.75
2,COC(=O)c1ccc(-c2cccc(C=CC3=[N+]4C(=Cc5ccc(CCC(=O)O)n5[B-]4(F)F)C(C)=C3)c2)cc1 [BAA-58a],0.70
3,CC1=CC(C=Cc2cccc(-c3ccc(S(C)(=O)=O)cc3)n2)=[N+]2C1=Cc1ccc(CCC(=O)O)n1[B-]2(F)F [BAA-59a],0.53
4,CC1=CC(C=Cc2ccc(-c3cccs3)s2)=[N+]2C1=Cc1ccc(C(=Cc3ccc(-c4cccs4)s3)CC(=O)O)n1[B-]2(F)F [BAA-60b],0.47
5,CC1=CC(C=Cc2cccc3cnccc23)=[N+]2C1=Cc1ccc(CCC(=O)O)n1[B-]2(F)F [BAA-62a],0.68
6,CC1=CC(C=Cc2cc3ccc(C)cc3nc2Cl)=[N+]2C1=Cc1ccc(CCC(=O)O)n1[B-]2(F)F [BAA-63a],0.43
7,CC1=CC(C=Cc2c[nH]nc2-c2ccc(Cl)cc2)=[N+]2C1=Cc1ccc(CCC(=O)O)n1[B-]2(F)F [BAA-64a],0.80
8,CC1=CC(C=Cc2ccc(-c3ccccc3F)o2)=[N+]2C1=Cc1ccc(CCC(=O)O)n1[B-]2(F)F [BAA-65a],0.21
9,CC1=CC(C=Cc2ccc(-c3ccc(Cl)s3)nc2)=[N+]2C1=Cc1ccc(CCC(=O)O)n1[B-]2(F)F [BAA-66a],0.28
10,CCSc1ccc(-c2ccc(C=CC3=[N+]4C(=Cc5ccc(CCC(=O)O)n5[B-]4(F)F)C(C)=C3)cn2)cc1 [BAA-67a],0.15
11,CC1=CC(C=Cc2ccc(-c3nccs3)cc2)=[N+]2C1=Cc1ccc(CCC(=O)O)n1[B-]2(F)F [BAA-68a],0.17
12,CC1=CC(C=Cc2ccc(-c3cc(Cl)cc(Cl)c3)nc2)=[N+]2C1=Cc1ccc(CCC(=O)O)n1[B-]2(F)F [BAA-69a],0.85
13,CC1=CC(C=Cc2ccc(-c3cccc(C(F)(F)F)c3)nc2)=[N+]2C1=Cc1ccc(CCC(=O)O)n1[B-]2(F)F [BAA-70a],0.17
14,CC1=CC(C=Cc2ccc(-c3ccc(OC(F)(F)F)cc3)nc2)=[N+]2C1=Cc1ccc(CCC(=O)O)n1[B-]2(F)F [BAA-71a],0.19
15,CC1=CC(C=Cc2ccc(-c3ccc(F)c(F)c3)nc2)=[N+]2C1=Cc1ccc(CCC(=O)O)n1[B-]2(F)F [BAA-72a],0.40
16,CC1=CC(C=Cc2ccc(OCCBr)cc2)=[N+]2C1=Cc1ccc(CCC(=O)O)n1[B-]2(F)F [BAA-73a],0.55
